The values that follow are results of earlier work, collected in patent US20070092567A1 (GALEPHAR M/F, priority 2001, published 2007).

Each structure is given as a SMILES string. Entries after “also recorded” stand apart in the source; their conditions may differ.

Series [1] concerns the target cytochrome P450 2C9 isoenzyme (Homo sapiens, UniProt P11712).
The next series addresses cytochrome P450 3A4 (Homo sapiens, UniProt P08684).
Test in series [2]: not given
The source holds these as a separate data set.

Chain of cytochrome P450 2C9 isoenzyme (P11712 whole entry): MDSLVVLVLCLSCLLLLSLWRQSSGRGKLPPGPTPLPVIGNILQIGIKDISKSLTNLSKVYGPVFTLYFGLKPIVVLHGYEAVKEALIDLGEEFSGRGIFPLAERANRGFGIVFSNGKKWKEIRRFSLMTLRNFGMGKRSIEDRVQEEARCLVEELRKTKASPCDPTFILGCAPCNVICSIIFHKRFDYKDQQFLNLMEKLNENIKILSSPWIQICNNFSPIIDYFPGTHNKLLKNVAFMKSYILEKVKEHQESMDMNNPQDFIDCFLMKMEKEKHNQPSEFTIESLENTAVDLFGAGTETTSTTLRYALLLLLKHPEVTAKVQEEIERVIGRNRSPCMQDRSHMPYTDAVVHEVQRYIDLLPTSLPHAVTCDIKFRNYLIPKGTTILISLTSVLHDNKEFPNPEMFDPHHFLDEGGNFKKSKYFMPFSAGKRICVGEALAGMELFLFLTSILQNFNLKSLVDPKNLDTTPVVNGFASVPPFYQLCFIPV
Chain of cytochrome P450 3A4 (P08684 whole entry): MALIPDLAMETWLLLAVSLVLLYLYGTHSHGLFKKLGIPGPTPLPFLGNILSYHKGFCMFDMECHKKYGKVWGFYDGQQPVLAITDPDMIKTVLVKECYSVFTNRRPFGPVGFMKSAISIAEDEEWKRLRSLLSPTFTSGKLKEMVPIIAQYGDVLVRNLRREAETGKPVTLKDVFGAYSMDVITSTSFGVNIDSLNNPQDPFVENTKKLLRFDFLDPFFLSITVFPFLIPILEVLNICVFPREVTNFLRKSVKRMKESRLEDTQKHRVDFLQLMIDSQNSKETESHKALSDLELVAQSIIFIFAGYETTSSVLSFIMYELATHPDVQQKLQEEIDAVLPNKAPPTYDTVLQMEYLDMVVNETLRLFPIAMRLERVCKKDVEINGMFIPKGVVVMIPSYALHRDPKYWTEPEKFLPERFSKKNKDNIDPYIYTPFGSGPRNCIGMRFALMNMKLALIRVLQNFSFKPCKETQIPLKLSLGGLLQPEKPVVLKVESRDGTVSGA

`CC(C)OC(=O)C(C)(C)Oc1ccc(C(=O)c2ccc(Cl)cc2)cc1` [Fenofibrate, p-(4-chlorobenzoyl)-phenoxy isobutyrate isopropyl ester]: the “metabolisation by cytochrome P450 2C9 isoenzyme” value in series [1] was “only weakly metabolised”. In addition, at cytochrome P450 3A4, the “metabolisation by cytochrome P450 3A4” value is recorded as “not metabolised by cytochrome P450 3A4”.

On to `CC(C)(Oc1ccc(C(=O)c2ccc(Cl)cc2)cc1)C(=O)O` [fenofibric acid], for which the mean plasma half-life (healthy, fasting young adults) was 19.6 to 26.6 h. Also, where the note is “in vivo”, the “eliminated in the urine as fenofibric acid ester glucuronide” value is 60-88%. Moreover, under “single oral dose of 300 mg fenofibrate”, the Peak plasma levels was 6 to 9.5 mg/L.

Regarding `CC[C@H](C)C(=O)O[C@H]1C[C@H](O)C=C2C=C[C@H](C)[C@H](CC[C@@H](O)C[C@@H](O)CC(=O)O)[C@H]21` [pravastatin], the average oral absorption in series [2] (based on urinary recovery of radiolabeled drug) is 34%. Besides, the “decrease of systemic bioavailability following a bedtime dose compared to morning administration” value in series [2] (human, in vivo) was 60%. Moreover, the “metabolisation through the cytochrome P450 system” value with cytochrome P450 system is “not metabolised through the cytochrome P450 system; also recorded: does not involve the cytochrome P450 system”.
